Measurements published in ChEMBL document CHEMBL3301472, “MMV Malaria Box HIV and cytotoxicity screening”.

What was measured:
[1] = MMV: MTT Cytotoxicity Assay Day 7 pi of Assay #7 (compound washed out Day 1 pi), U87-CD4-CXCR4 cells, % cell death @ 5mM compound; assay type: toxicity, cell-based; conditions: human, u87-cd4-cxcr4, 5000 µM
[2] = system: Human immunodeficiency virus 1; assay: MMV: HIV CCR5-tropic env JRFL pseudovirus assay produces luciferase signal in lieu of replicating viral particles Day 3 pi, U87-CD4-CCR5, % inhibition at 5 mM compound; assay type: functional; set-up: dose or concentration left out as unconfirmed; conditions: Human immunodeficiency virus 1, JR-FL, U87/CD4/CCR5, 72 h
[3] = MMV: MTT Cytotoxicity Assay Day 7 pi of Assay #11 (NO washout), U87-CD4-CXCR4 cells, % cell death @ 5mM compound; assay type: toxicity, cell-based; conditions: human, u87-cd4-cxcr4, 5000 µM
[4] = MMV: MTT Cytotoxicity Assay Day 7 pi of Assay #6 (compound washed out Day 1 pi), U87-CD4-CCR5 cells, % cell death @ 5mM compound; assay type: toxicity, cell-based; conditions: human, u87-cd4-ccr5, 5000 µM
[5] = MMV: MTT Cytotoxicity Assay Day 7 pi of Assay #10 (NO washout), U87-CD4-CCR5 cells, % cell death @ 5mM compound; assay type: toxicity, cell-based; conditions: human, u87-cd4-ccr5, 5000 µM
[6] = MMV: MTT Cytotoxicity Assay Day 3 pi, U87-CD4-CCR5 cells, % cell death @ 5mM compound; assay type: toxicity, cell-based; conditions: human, u87-cd4-ccr5, 5000 µM
[7] = MMV: MTT Cytotoxicity Assay Day 3 pi, U87-CD4-CXCR4 cells, % cell death @ 5mM compound; assay type: toxicity, cell-based; conditions: human, u87-cd4-cxcr4, 5000 µM
[8] = system: Human immunodeficiency virus 1; assay: MMV: HIV JRFL CCR5-tropic replication-competent virus, NO washout, P24 ELISA Day 7 pi, U87-CD4-CCR5, % inhibition at 5 mM compound; assay type: functional; set-up: dose or concentration left out as unconfirmed; conditions: Human immunodeficiency virus 1, JR-FL, U87/CD4/CCR5, 168 h
[9] = system: Human immunodeficiency virus 1; assay: MMV: HIV CXCR4-tropic env NL4-3 pseudovirus assay produces luciferase signal in lieu of replicating viral particles Day 3 pi, U87-CD4-CXCR4, % inhibition at 5 mM compound; assay type: functional; set-up: dose or concentration left out as unconfirmed; conditions: Human immunodeficiency virus 1, NL4-3, U87.CD4.CXCR4, 72 h
[10] = system: Human immunodeficiency virus 1; assay: MMV: HIV NL4-3 CXCR4-tropic replication-competent virus, NO washout, P24 ELISA Day 7 pi, U87-CD4-CXCR4, % inhibition at 5 mM compound; assay type: functional; set-up: dose or concentration left out as unconfirmed; conditions: Human immunodeficiency virus 1, NL4-3, U87.CD4.CXCR4, 168 h
[11] = system: Human immunodeficiency virus 1; assay: MMV: HIV CXCR4-tropic env HxB2 pseudovirus assay produces luciferase signal in lieu of replicating viral particles Day 3 pi, U87-CD4-CXCR4, % inhibition at 5 mM compound; assay type: functional; set-up: dose or concentration left out as unconfirmed; conditions: Human immunodeficiency virus 1, HxB2, U87.CD4.CXCR4, 72 h
[12] = system: Human immunodeficiency virus 1; assay: MMV: HIV JRFL CCR5-tropic replication-competent virus, virus & compound washed out Day 1 pi, P24 ELISA Day 7 pi, U87-CD4-CCR5, % inhibition at 5 mM compound; assay type: functional; set-up: dose or concentration left out as unconfirmed; conditions: Human immunodeficiency virus 1, JR-FL
[13] = system: Human immunodeficiency virus 1; assay: MMV: HIV NL4-3 CXCR4-tropic replication-competent virus, virus & compound washed out Day 1 pi, P24 ELISA Day 7 pi, U87-CD4-CXCR4, % inhibition at 5 mM compound; assay type: functional; set-up: dose or concentration left out as unconfirmed; conditions: Human immunodeficiency virus 1, NL4-3, U87.CD4.CXCR4

SMILES | % Cell Death [1] | inhibition [2] [%] | % Cell Death [3] | % Cell Death [4] | % Cell Death [5] | % Cell Death [6] | % Cell Death [7] | inhibition [8] [%] | inhibition [9] [%] | inhibition [10] [%] | inhibition [11] [%] | inhibition [12] [%] | inhibition [13] [%]
Cc1sc(NC(=O)c2ccco2)c(C(c2cccnc2)N2CCC(Cc3ccccc3)CC2)c1C (centres undefined) | 94 | 8 | 104 | 81 | 107 | 110 | 88 |  |  |  |  |  | 
COc1cccc(C2(C)Nc3ccccc3-c3nc4ccccc4n32)c1 (centres undefined) | 25 | 9 | 92 | 37 | 35 | -22 | 28 |  |  |  |  |  | 
CCN1CCN(Cc2ccc(NC(=O)c3cc4ccc5cccnc5c4[nH]3)cc2)CC1 | -2 |  | 26 | 38 | 9 | -23 | 22 | 3 |  |  |  |  | 
CCc1c(C)c(=N)c2ccccc2n1C.I | -17 |  | -5 | 30 | -10 | 22 | 100 | 8 |  |  |  |  | 
Cc1ccc(C(=O)c2oc3ccc4c(C)cc(=O)oc4c3c2C)cc1 | 22 |  | 92 | 7 | 83 | 59 | 94 | 8 |  |  |  |  | 
CCN(CC)CCn1c(=N)n(CC(O)c2ccc(Cl)c(Cl)c2)c2ccccc21.Cl (centres undefined) | 20 |  | 52 | 14 | -29 | 18 | 4 |  | 10 | 0 |  |  | 
CCN1CCN(c2cc(C)c3cc(NC(=O)c4ccc(OC)c(OC)c4)ccc3n2)CC1 | 61 |  | 55 | 93 | 43 | 95 | 36 | -2 |  |  |  |  | 
CC(=O)Nc1nnc(SCc2c(C)cc(C(C)(C)C)cc2C)s1 | 10 | 8 | 6 | 3 | 3 | 14 | 27 |  |  |  |  |  | 
COc1ccc(C(=O)Nc2nonc2-c2ccc(OC)c(OC)c2)cc1Cl | 53 | 5 | 67 | 13 | 100 | 64 | 47 |  |  |  | 9 | 6 | 
Cc1ccc(OCCCCCCNCCO)c(C)c1 | -10 | -2 | -10 | 30 | 15 | -3 | 28 |  |  |  |  |  | 
COc1ccc(C(=O)Nc2ccc(Cl)cc2C(=O)Nc2ccncc2)cc1 | -11 |  | 33 | -7 | 0 | 14 | 22 | 0 |  |  |  |  | 
O=C(NC1CCN(Cc2ccccc2)CC1)c1cc(-c2cccnc2)nc2ccc(Cl)cc12 | -10 | 8 | 40 | 11 | 43 | -9 | 34 |  |  |  | 8 |  | 
O=C1c2ccc3c4c(ccc(c24)C(=O)N1CCCCO)C(=O)N(CCCCO)C3=O | -43 |  | -30 | 16 | 61 | 39 | 27 |  |  | 2 |  |  | 
Nc1ccc(-c2nc3cc(Oc4ccc(Oc5ccc6[nH]c(-c7ccc(N)cc7)nc6c5)cc4)ccc3[nH]2)cc1 | 68 | 4 | 21 | 12 | 113 | 21 | 51 |  |  |  |  |  | 
CCOC(=O)c1cnc2ccc(OC)cc2c1Nc1ccc(N2CCN(C)CC2)cc1 | 17 | -2 | -14 | 5 | 11 | -13 | 37 |  | 6 |  | -1 |  | 8
COc1ccccc1C(=O)ON=C(N)Cc1cccc2ccccc12 | 42 |  | -11 | -17 | 43 | 23 | 47 |  | 1 | 0 |  |  | 
CC(C)CCNCC(O)Cn1c2ccccc2c2ccccc21.Cl (centres undefined) | -6 |  | -6 | -10 | -11 | 6 | 32 |  |  | 1 |  |  | 
Cc1cc(C)c2c(c1)OCN(Cc1ccccc1Cl)C2 | -14 |  | 33 | 20 | -6 | -12 | 31 | -2 |  |  |  |  | 
COc1cc(OC)c(N(C)C(=O)c2cc3c(s2)-c2ccccc2S(=O)(=O)C3)cc1Cl | -18 |  | -30 | 22 | -2 | 28 | 33 |  |  | 2 |  |  | 7
Cc1ccccc1OCCSc1nc2ccc(NC(=O)c3ccccc3)cc2s1 | 1 | 10 | 100 | 31 | 106 | 96 | 36 |  |  |  |  |  | 
CCCc1cc(O)c2c3c(c(=O)oc2c1)CN(C)CC3 | 57 |  | 40 | -8 | 45 | 22 | 44 |  | 4 | 6 |  |  | 
COc1ccc(-c2nonc2NC(=O)c2cccc(Cl)c2)cc1OC | 49 | -2 | 97 | 13 | 100 | 61 | 45 |  |  |  |  |  | 
c1ccc(CNc2nc(Nc3ccccc3)nc3ccccc23)cc1 | -7 | 6 | 0 | -8 | 27 | 36 | 53 |  |  | -2 | 9 |  | 
OC1CCCCC1C1(NC(=S)Nc2ccccc2)CCCCC1 (centres undefined) | 29 |  | -25 | -5 | 4 | 23 | 11 |  |  | 8 |  | 7 | 
CCCCCCOC(=O)C1=C(C)NC(=O)NC1c1ccccc1F (centres undefined) | -33 | -2 | -34 | -10 | 40 | 16 | 29 |  |  |  | 3 |  | 
Br.CCN(CC)S(=O)(=O)c1ccc(-c2csc(Nc3ccc(C)c(C)c3)n2)cc1 | -19 | -2 | 11 | 20 | 26 | -17 | 29 |  |  |  |  |  | 3
CCCn1c(=N)c(C(=O)NC2CCCCC2)cc2c(=O)n3cccc(C)c3nc21 | -17 |  | -51 | 0 | 43 | 29 | 35 |  |  | 4 |  |  | 
Cc1ccc(S(=O)(=O)c2c(COC(=O)c3cccc(C)c3)c(-c3ccccc3)nn2C)cc1 | 22 |  | 31 | 5 | 16 | 27 | 22 |  |  | 7 |  | 5 | 
Nc1ccn([C@@H]2O[C@H](CO)[C@@H](O)[C@H]2O)c(=O)n1 [CYTIDINE] | 24 |  | 0 | -9 | 26 | -30 | 28 |  |  | 6 |  |  | 
